{"source": "EPA's ToxValDB 9.5 (doi:10.2903/j.efsa.2008.127r)", "key": {"[1]": {"test_system": "Anas platyrhynchos"}, "[2]": {"test_system": "Apis mellifera", "conditions": "acute, mortality"}, "[3]": {"test_system": "Bibionidae", "conditions": "chronic/long-term; duration: 27 days"}, "[4]": {"test_system": "Colinus virginianus"}, "[5]": {"test_system": "Daphnia magna", "conditions": "chronic/long-term; duration: 21 days; reproduction"}, "[6]": {"test_system": "Folsomia candida", "conditions": "chronic/long-term; duration: 28 days"}, "[7]": {"test_system": "Oncorhynchus mykiss"}, "[8]": {"test_system": "Rattus norvegicus"}, "[9]": {"test_system": "Tagia sp."}}, "data": [{"smiles": "CCCCN(CC)c1c([N+](=O)[O-])cc(C(F)(F)F)cc1[N+](=O)[O-]", "note": "[Benfluralin]", "values": [{"measurement": "NOEC", "setting": "[1]; reproductive", "value": 49.3, "unit": "mg/kg-day"}, {"measurement": "LC50", "setting": "[1]; short-term, oral, feed, mortality", "value": "> 793", "unit": "mg/kg-day"}, {"measurement": "LD50", "setting": "[2]; dermal", "value": "> 100", "unit": "µg/piece"}, {"measurement": "LD50", "setting": "[2]; oral, unspecified", "value": "> 111", "unit": "µg/piece"}, {"measurement": "NOEC", "setting": "[3]", "value": 0.231, "unit": "mg/L"}, {"measurement": "LC50", "setting": "[4]; acute, oral, diet, mortality", "value": "> 909", "unit": "mg/kg-day"}, {"measurement": "LD50", "setting": "[4]; acute, oral, mortality", "value": "> 2000", "unit": "mg/kg-day"}, {"measurement": "NOEC", "setting": "[4]; reproduction developmental", "value": 8.6, "unit": "mg/kg-day"}, {"measurement": "NOEC", "setting": "[5]", "value": 0.0155, "unit": "mg/L"}, {"measurement": "NOEC", "setting": "[6]", "value": 5.5, "unit": "mg/kg"}, {"measurement": "LC50", "setting": "[7]; acute, duration: 96 hours, mortality", "value": 0.081, "unit": "µg/mL"}, {"measurement": "NOEC", "setting": "[7]; chronic/long-term, duration: 49 days, growth", "value": 0.0019, "unit": "mg/L"}, {"measurement": "LD50", "setting": "[8]; acute, oral, mortality", "value": "> 5000", "unit": "mg/kg-day"}, {"measurement": "NOAEL", "setting": "[8]; chronic, duration: 2 years, histopathology: nonneoplastic", "value": 0.5, "unit": "mg/kg-day"}, {"measurement": "NOAEL", "setting": "[8]; reproduction developmental, body weight", "value": 5.5, "unit": "mg/kg-day"}, {"measurement": "NOAEL", "setting": "[8]; subchronic, duration: 90 days, oral, histopathology: nonneoplastic", "value": 17, "unit": "mg/kg-day"}, {"measurement": "LC50", "setting": "[9]; acute, duration: 14 days, mortality", "value": "> 1000", "unit": "mg/kg"}, {"measurement": "NOEC", "setting": "[9]; chronic/long-term, duration: 8 weeks", "value": 30.8, "unit": "mg/kg"}]}]}
